We go through 24 substances from patent US20260240975A1, “VALIDATED HPV16-DERIVED S[…]” (Deutsches Krebsforschungszentrum Stiftung des öffentlichen …, priority 2023, published 2026).

In data set [1] the test system is short-term antigen-specific T cell lines generated from PBMCs. Further details: key: +: ELISPOT: Immungenicity of the peptide shown by IFN-gamma ELISPOT analysis; * Highlights data from published resources; +*: * Highlights data from published resources. Particulars: marked * (published resources), cited from earlier work.
For data set [2] the test system is unchanged. Put plainly: Interferon-γ ELISpot assay on short-term T cell lines. In kind it is cell-based, human. More on the design: key: +: ELISPOT: Immungenicity of the peptide shown by IFN-gamma ELISPOT analysis; * Highlights data from published resources; +*: * Highlights data from published resources.
The test system of data set [3] is peptide-specific T cell cultures. Kind of data set: T cell phenotyping and intracellular cytokine staining (flow cytometry). In kind it is cell-based, human. More on the design: key: +: cytokine: Immunogenicity of the peptide shown by intracellular cytokine staining (IFN-gamma, TNF-alpha). Particulars: IFN-gamma, TNF-alpha. (Flow cytometry measures light scatter and fluorescence of single cells or particles in a stream.)

In data set [4] the test system is HPV16-positive cells. Put plainly: Cytotoxicity assay (VITAL FR / live-cell imaging) with peptide-specific CD8+ T cells. It is filed as cell-based, human. Further details: key: +: cytotox: Ability of peptide-specific T cells to kill HPV16-positive cells. On the procedure: The flow cytometry based VITAL FR cytotoxicity assay was used as published by Stanke et al. (Stanke et al., 2010) to assess whether peptide-specific T cells are able to specifically kill HPV-transformed target cells. Briefly, two HLA-A2^+ cell lines, a HPV16-negative (HPV16^−) control cell line (C33A) and a HPV16-positive (HPV16^+) target cell line (CaSki) were fluorescently labeled with either FarRed or CFSE and were co-incubated with peptide-specific CD8^+ T cells as effector cells. After 48 h co-incubation, the fluorescently labeled cells were analyzed by flow cytometry to determine the surviving cells and calculate the specific cytolytic function of the effector cells by the ratio of target and control cells.
CaSki and C33A cells were fluorescently labeled with CFSE and FarRed, respectively. Cells of both cell lines were harvested and resuspended in plain RPMI medium at a concentration of 1×10^6 cells/mL. For cell labeling, 5 μM CSFE were added to CaSki cells and 0.25 μM FarRed were added to C33A cells. The cells were incubated at 37° C. and the reaction was stopped after 10 min by addition of 50 mL RPMI with 10% FBS. The cells were centrifuged at 300 xg for 5 min, the supernatant was discarded and the cells were resuspended in their cell culture medium. The labeled cells were seeded in T25 cell culture flasks with 1-2×10^6 cells/flask.
On the next day, the labeled CaSki and C33A as well as the epitope-specific semi-long-term T cell lines (described in 1.6) were harvested. CD8^+ T cells were isolated from the epitope-specific semi-long-term T cell lines using the MACS CD8^+ T cell isolation kit (Miltenyi Biotec) according to the manufacturer's protocol for LS columns. The CD8^+ T cells were resuspended in T cell medium and added to wells of a F-bottom 96-well plate in serial dilutions to achieve triplicates of 6×10^4, 3×10^4, 1.5×10^4, 0.75×10^4 and 0.375×10^4 cells per well. The CaSki and C33A cells were mixed 1:1 in T cell medium and 3×10^3 cells were added to each well containing T cells. Thereby effector:target (E:T) ratios of […] were achieved. Additionally, triplicates of mixed target cells without T cells were seeded, which is referred to as E:T 0. After 48 h incubation at 37° C., 5% CO2, the cells were harvested and analyzed at a BD FACS Canto™ II analyzer using the BD FACS Diva Software Version 6. The obtained data were analyzed with the FlowJo software Version 10 by applying the same gating strategy to all samples. Subsequently, the equations (1) and (2) given below were applied in Excel (Microsoft Office 2016) to calculate specific killing.
Semi long-term T cell lines were set up to obtain high numbers of T cells, which are required for the analysis of epitope specific cytotoxic T cell responses in VITAL FR cytotoxicity assays. Autologous DCs were generated from PBMCs as described in 1.7 and loaded with the desired HPV16 peptide. PBMCs of the same donor were thawed and resuspended in T cell medium supplemented with rhIL-7 (10 ng/mL) and rhIL-15 (20 ng/mL). 1×10^7 PBMCs/well were seeded to a 24-well plate in a total volume of 1 mL/well. Peptide-loaded DCs were added in a ratio of 50:1 (PBMCs:DCs) in 1 mL rhIL-7 (10 ng/mL) and rhIL-15 (20 ng/mL) supplemented T cell medium to achieve a final volume of 2 mL. The cell cultures were fed with rhIL-2 (final concentration: 40 U/mL) every other day. If the medium turned yellow the feeding was combined with a half medium change with 1 mL fresh IL-2 supplemented T cell medium. After eight days, the peptide stimulation with peptide-loaded DCs was repeated and cultivation was continued. On day 15, the T cell lines were harvested and used for CD8^+ T cell isolation and cytotoxicity assays.
In addition to the VITAL FR assay described herein above, a newly established live-cell imaging-based cytotoxicity assay was applied. […]

Where two headings read alike, the source gives them in different places. No end group written: not given here.

With “1 (ISEYRHYCY; Human papillomavirus 16) [compound 1]”, in data set [1] (HLA restriction A01), the ELISpot entry is “+*”. Consider “2 (HGDTPTLHEY; Human papillomavirus 16) [compound 2]”, for which, in data set [1] (HLA restriction A01), the ELISpot entry is reported as “+*”. Turning to “34 (CVYCKQQLLR; Human papillomavirus 16) [compound 34]”, the ELISpot result in data set [1] (HLA restriction A11) was “*”; in data set [2] (HLA restriction A03) it was “+”.

“43 (AVCDKCLKFY; Human papillomavirus 16) [compound 43]”: the cytokine entry in data set [3] (HLA restriction A03), in data set [3] (HLA restriction A11) and in data set [3] (HLA restriction B15) was “+” each time. For the same substance, the ELISpot result in data set [1] (HLA restriction A11) is given as “+*”; in data set [2] (HLA restriction A03) it was “+”; in data set [2] (HLA restriction B15), “+”. For the substance “61 (RAHYNIVTF; Human papillomavirus 16) [compound 61]”, the ELISpot entry in data set [1] (HLA restriction B07) was “+*”; in data set [2] (HLA restriction B15), “+”. Take “62 (TFCCKCDSTL; Human papillomavirus 16) [compound 62]”: the cytotox entry in data set [4] (HLA restriction A24) is given as “+”. In addition, the ELISpot entry in data set [2] (HLA restriction A24) is “+”. Take “77 (TPTLHEYML; Human papillomavirus 16) [compound 77]”: the ELISpot entry in data set [1] (HLA restriction B07) is reported as “*”. Turning to “80 (NIRGRWTGRCM; Human papillomavirus 16) [compound 80]”, the cytokine entry in data set [3] (HLA restriction B07) was “+”. The ELISpot entry in data set [2] (HLA restriction B07) and in data set [2] (HLA restriction B15) was “+” each time. For “81 (EPDRAHYNIV; Human papillomavirus 16) [compound 81]”, in data set [3] (HLA restriction B07), the cytokine result is “+”. Further, the ELISpot entry in data set [2] (HLA restriction B07) is reported as “+”. “85 (KQQLLRREVY; Human papillomavirus 16) [compound 85]”: the cytokine entry in data set [3] (HLA restriction B15) is reported as “+”. Moreover, the ELISpot result in data set [2] (HLA restriction B15) is on record as “+”. Turning to “86 (AFRDLCIVY; Human papillomavirus 16) [compound 86]”, the cytokine result in data set [3] (HLA restriction B15) is “+”. In data set [2] (HLA restriction B15), the ELISpot entry is given as “+”. On to “87 (LQPETTDLY; Human papillomavirus 16) [compound 87]”, for which the cytokine result in data set [3] (HLA restriction B15) is reported as “+”. In data set [1] (HLA restriction B15), the ELISpot entry is listed as “+*”. For the substance “88 (GQAEPDRAHY; Human papillomavirus 16) [compound 88]”, in data set [3] (HLA restriction B15), the cytokine entry is reported as “+”. Moreover, the ELISpot result in data set [2] (HLA restriction B15) is on record as “+”.

“95 (YRHYCYSVY; Human papillomavirus 16) [compound 95]”: the cytokine result in data set [3] (HLA restriction B15) is given as “+”. Also, in data set [2] (HLA restriction B15), the ELISpot entry is reported as “+”. Consider “108 (KQRFHNIRGRW; Human papillomavirus 16) [compound 108]”, for which the cytokine result in data set [3] (HLA restriction B15) was “+”. Also, the ELISpot result in data set [2] (HLA restriction B15) is listed as “+”. For “117 (RHYCYSLY; Human papillomavirus 16) [compound 117]”, the cytokine in data set [3] (HLA restriction A03) was 1. In data set [2] (HLA restriction A03), the ELISpot result is “+”. As to “122 (RPRKLPDLCT; Human papillomavirus 16) [compound 122]”, in data set [3] (HLA restriction B07), the cytokine result is recorded as “+”. The ELISpot entry in data set [2] (HLA restriction B07) is “+”. On to IRTLEDLLMGT [compound 33], for which the cytotox result in data set [4] (HLA restriction A02) is “+”. The same measure, in the same setting: in the case of LLMGTLGIVCP [compound 25] it was “+”.

For the substance LMGTLGIVCPI [compound 12], in data set [4] (HLA restriction A02), the cytotox entry is given as “+”. The same measure, in the same setting: in the case of MGTLGIVCPI [compound 14] it was “+”; in that of RLCVQSTHV [compound 11], “+”. Consider TTIHDIILECV [compound 30], for which, in data set [4] (HLA restriction A02), the cytotox result is “+”. On the same count and under the same terms, in the case of YMLDLQPE [compound 13] it was “+”.
